Seven compounds from ChEMBL document CHEMBL1201862, “PubChem BioAssay data set” (2004) can be followed below.

Activity calls are given as the source filed them. Where only a bound is given, the exact number is not on record here.

Assay [1] concerns HEK293. As to the kind of experiment: TNF Induced NF-kB Luciferase in 293-NF-kB-Luc Stable Cells. [Related pubchem assays: 1266, 1299, 1269, 1373, 1292, 1290, 1302, 1371, 1283, 1270, 1295, 1271, 1375, 1294, 1374, 1281, 1293, 1291, 1289, 1280, 465, 1368, 1364, 1282, 1372, 1365, 1369, 1370, 1367, 1366 ]. It counts as functional, cell-based. As to conditions: Homo sapiens.
Assay [2] deals with Luciferin 4-monooxygenase (Photinus pyralis, UniProt P08659). Nature of the assay: In vitro luciferase assay using purified luciferase. [Related pubchem assays: 1299, 1270, 1295, 1375, 1287, 1281, 1293, 1291, 1289, 1280, 465, 1364, 1282, 1372, 1365, 1370, 1367, 1366, 1266, 1373, 1292, 1290, 1302, 1371, 1283, 1271, 1294, 1374, 1368, 1369 ].
For assay [3], the system named is HEK293. Nature of the assay: Cytotoxicity assay in HEK293 cells. [Related pubchem assays (depositor defined):AID1266, AID1269, AID1270, AID1271, AID1280, AID1281, AID1282, AID1283, AID1287, AID1289, AID1290, AID1291, AID1292, AID1293, AID1294, AID1295, AID1299, AID1302, AID1364, AID1365, AID1366, AID1367, AID1369, AID1370, AID1371, AID1372, AID1373, AID1374, AID1375, AID1384 …. It counts as functional, cell-based. As to conditions: Homo sapiens.

Assay [4] concerns HEK293. As to the kind of experiment: PMA/Ionomycin induced NF-kB luciferase assay in 293- NF-kB-Luc stable cells. [Related pubchem assays: 1299, 1270, 1295, 1375, 1287, 1281, 1293, 1291, 1289, 1280, 465, 1364, 1282, 1372, 1365, 1370, 1367, 1366, 1269, 1373, 1292, 1290, 1302, 1371, 1283, 1271, 1294, 1374, 1368, 1369 ]. As to conditions: Homo sapiens. It counts as functional, cell-based.

Assay [5] relates to HEK293. As to the kind of experiment: cells. As to conditions: Homo sapiens.
Assay [6] is described as follows: THP-1 cell cytotoxicity, dose response, cytotoxicity control for non-replicating M. tuberculosis project (AID 489025). Type of assay: functional.
A short description of assay [7]: Vero E6 cell cytotoxicity, dose response, cytotoxicity control for non-replicating M. tuberculosis project, secondary assay (AID 492998). Type of assay: functional, VeroE6. As to conditions: Vero C1008.
A further assay deals with Tumor necrosis factor (Homo sapiens, UniProt P01375). As to the kind of experiment: TNFa-triggered NF-kB activation inhibitors, SAR follow-up, cell-based, revised (AID 2337). Type of assay: functional.
The target of assay [8] is Nucleotide-binding oligomerization domain-containing protein 2 (Homo sapiens, UniProt Q9HC29). Nature of the assay: PubChem AID 2334. Type of assay: functional.
A further assay in a line: cells. It counts as functional.
The target of assay [9] is Nucleotide-binding oligomerization domain-containing protein 1 (Homo sapiens, UniProt Q9Y239). As to the kind of experiment: NOD1 signaling inhibitors, SAR follow-up, revised (AID 2333). It counts as functional.
Assay [10] is described as follows: inhibitors of intracellular T. cruzi replication, confirmation, NIH3T3 host cells, beta-gal luminescence (AID 2044).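 Note: intracellular parasites grown in NIH/3T3 mouse fibroblasts as host cells; luminescent beta-galactosidase reporter signal from transgenic T. cruzi replicating inside host cells; inhibitors lower the luminescence signal.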 Type of assay: functional, cell-based.
A short description of assay [11]: microbe, parasite or virus in culture. It counts as functional. As to conditions: Mycobacterium tuberculosis.
The target of assay [12] is T1, Interleukin-8 (Homo sapiens, UniProt P10145).
T1 sequence (P10145 whole entry): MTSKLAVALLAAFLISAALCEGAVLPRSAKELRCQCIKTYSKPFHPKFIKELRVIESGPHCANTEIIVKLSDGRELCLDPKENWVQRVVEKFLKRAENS
Nature of the assay: SAR analysis of GM-Tri-DAP induced IL-8 secretion in MCF-7/NOD1 cells - Set 2. [Related pubchem assays (depositor defined):AID1575, AID1578, AID2333]. It counts as functional, cell-based.

Assay [13] in a line: cytotoxicity toward NIH3T3 fibroblasts, dose response, counter-screen, cell-based, ATP luminescence, mouse fibroblasts (AID 2010).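 Note: cells exposed to compound for about 90 hours before reading.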 Type of assay: functional.
A short description of assay [14]: HepG2 cell cytotoxicity, dose response, cytotoxicity control for non-replicating M. tuberculosis project (AID 489018). It counts as functional. As to conditions: Mycobacterium tuberculosis.
Assay [15] concerns the target T1, Interleukin-8. As to the kind of experiment: SAR analysis of Tumor necrosis factor alpha (TNF-alpha) induced IL-8 secretion in MCF-7/NOD1 cells - Set 2. [Related pubchem assays (depositor defined):AID1575, AID2250, AID2260]. Type of assay: functional, cell-based.
Assay [16] has as its target Dual specificity protein phosphatase 3 (Homo sapiens, UniProt P51452). Nature of the assay: VHR1 inhibitor Ki determination, SAR follow-up, biochemical, colorimetric (AID 2004).
Assay [17] addresses T2, Voltage-gated N-type calcium channel alpha-1B subunit/Amyloid beta A4 precursor protein-binding family A member 1 (Homo sapiens, UniProt Q00975+Q02410). As to the kind of experiment: disruptors of Mint-PDZ/N-type channel peptide interaction – biochemical, HTRF, SAR follow-up (AID 2489). It counts as functional. A general note: TR-FRET usually uses a lanthanide donor and a delayed reading to cut background.

In assay [18] the target is T2, Voltage-gated N-type calcium channel alpha-1B subunit/Amyloid beta A4 precursor protein-binding family A member 1. As to the kind of experiment: disruptors of Mint-PDZ/N-type channel peptide interaction – biochemical, HTRF, set 2, SAR follow-up (AID 434980). Type of assay: functional.
For assay [19], the target named is T3, Neuropeptides B/W receptor type 1 (Homo sapiens, UniProt P48145).
T3 sequence (P48145 whole entry): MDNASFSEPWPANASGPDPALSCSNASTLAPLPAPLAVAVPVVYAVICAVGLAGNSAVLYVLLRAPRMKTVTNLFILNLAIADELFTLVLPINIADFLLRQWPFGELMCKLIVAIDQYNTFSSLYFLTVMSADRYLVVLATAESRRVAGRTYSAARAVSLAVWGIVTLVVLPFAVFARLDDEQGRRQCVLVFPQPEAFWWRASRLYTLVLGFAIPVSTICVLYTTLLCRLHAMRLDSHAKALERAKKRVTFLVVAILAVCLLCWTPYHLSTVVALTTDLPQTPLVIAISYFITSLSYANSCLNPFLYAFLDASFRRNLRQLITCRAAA
As to the kind of experiment: GPR7 antagonist potency, late-stage follow-up, cell-based, fluorescence, dose response (AID 463251). Type of assay: functional.

For another assay, the target named is T4, Bcl-2-like protein 10 (Homo sapiens, UniProt Q9HD36).
T4 sequence (Q9HD36 whole entry): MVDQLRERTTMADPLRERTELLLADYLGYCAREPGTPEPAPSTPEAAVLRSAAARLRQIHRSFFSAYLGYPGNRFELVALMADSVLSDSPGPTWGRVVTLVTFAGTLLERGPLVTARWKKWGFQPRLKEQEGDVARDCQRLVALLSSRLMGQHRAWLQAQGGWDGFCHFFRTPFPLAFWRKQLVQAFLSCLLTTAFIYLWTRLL
As to the kind of experiment: displacers of TR3 peptide from Bcl-B, primary screen, selectivity assay for Bfl-1 inhibitor project, biochemical, fluorescence polarization, FITC-TR3 peptide (AID 748).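 Note: fluorescence polarization from a fluorescein-labelled TR3 peptide binding purified Bcl-B.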 A general note: Polarisation of emitted light reports the rotation of a fluorescent probe.

The next assay deals with Cytochrome P450 2C19 (Homo sapiens, UniProt P33261). Nature of the assay: qHTS Assay for Inhibitors and Substrates of Cytochrome P450 2C19. [Related pubchem assays: 410 ]. It counts as ADME. As to conditions: read-out: Potency. In general terms: In qHTS, concentration-response curves come from the screen itself.
In the next assay the target is Cytochrome P450 2D6 (Homo sapiens, UniProt P10635). As to the kind of experiment: qHTS Assay for Inhibitors and Substrates of Cytochrome P450 2D6. [Related pubchem assays: 410 ]. It counts as ADME. As to conditions: read-out: Potency.

T2 sequence (Q00975 whole entry): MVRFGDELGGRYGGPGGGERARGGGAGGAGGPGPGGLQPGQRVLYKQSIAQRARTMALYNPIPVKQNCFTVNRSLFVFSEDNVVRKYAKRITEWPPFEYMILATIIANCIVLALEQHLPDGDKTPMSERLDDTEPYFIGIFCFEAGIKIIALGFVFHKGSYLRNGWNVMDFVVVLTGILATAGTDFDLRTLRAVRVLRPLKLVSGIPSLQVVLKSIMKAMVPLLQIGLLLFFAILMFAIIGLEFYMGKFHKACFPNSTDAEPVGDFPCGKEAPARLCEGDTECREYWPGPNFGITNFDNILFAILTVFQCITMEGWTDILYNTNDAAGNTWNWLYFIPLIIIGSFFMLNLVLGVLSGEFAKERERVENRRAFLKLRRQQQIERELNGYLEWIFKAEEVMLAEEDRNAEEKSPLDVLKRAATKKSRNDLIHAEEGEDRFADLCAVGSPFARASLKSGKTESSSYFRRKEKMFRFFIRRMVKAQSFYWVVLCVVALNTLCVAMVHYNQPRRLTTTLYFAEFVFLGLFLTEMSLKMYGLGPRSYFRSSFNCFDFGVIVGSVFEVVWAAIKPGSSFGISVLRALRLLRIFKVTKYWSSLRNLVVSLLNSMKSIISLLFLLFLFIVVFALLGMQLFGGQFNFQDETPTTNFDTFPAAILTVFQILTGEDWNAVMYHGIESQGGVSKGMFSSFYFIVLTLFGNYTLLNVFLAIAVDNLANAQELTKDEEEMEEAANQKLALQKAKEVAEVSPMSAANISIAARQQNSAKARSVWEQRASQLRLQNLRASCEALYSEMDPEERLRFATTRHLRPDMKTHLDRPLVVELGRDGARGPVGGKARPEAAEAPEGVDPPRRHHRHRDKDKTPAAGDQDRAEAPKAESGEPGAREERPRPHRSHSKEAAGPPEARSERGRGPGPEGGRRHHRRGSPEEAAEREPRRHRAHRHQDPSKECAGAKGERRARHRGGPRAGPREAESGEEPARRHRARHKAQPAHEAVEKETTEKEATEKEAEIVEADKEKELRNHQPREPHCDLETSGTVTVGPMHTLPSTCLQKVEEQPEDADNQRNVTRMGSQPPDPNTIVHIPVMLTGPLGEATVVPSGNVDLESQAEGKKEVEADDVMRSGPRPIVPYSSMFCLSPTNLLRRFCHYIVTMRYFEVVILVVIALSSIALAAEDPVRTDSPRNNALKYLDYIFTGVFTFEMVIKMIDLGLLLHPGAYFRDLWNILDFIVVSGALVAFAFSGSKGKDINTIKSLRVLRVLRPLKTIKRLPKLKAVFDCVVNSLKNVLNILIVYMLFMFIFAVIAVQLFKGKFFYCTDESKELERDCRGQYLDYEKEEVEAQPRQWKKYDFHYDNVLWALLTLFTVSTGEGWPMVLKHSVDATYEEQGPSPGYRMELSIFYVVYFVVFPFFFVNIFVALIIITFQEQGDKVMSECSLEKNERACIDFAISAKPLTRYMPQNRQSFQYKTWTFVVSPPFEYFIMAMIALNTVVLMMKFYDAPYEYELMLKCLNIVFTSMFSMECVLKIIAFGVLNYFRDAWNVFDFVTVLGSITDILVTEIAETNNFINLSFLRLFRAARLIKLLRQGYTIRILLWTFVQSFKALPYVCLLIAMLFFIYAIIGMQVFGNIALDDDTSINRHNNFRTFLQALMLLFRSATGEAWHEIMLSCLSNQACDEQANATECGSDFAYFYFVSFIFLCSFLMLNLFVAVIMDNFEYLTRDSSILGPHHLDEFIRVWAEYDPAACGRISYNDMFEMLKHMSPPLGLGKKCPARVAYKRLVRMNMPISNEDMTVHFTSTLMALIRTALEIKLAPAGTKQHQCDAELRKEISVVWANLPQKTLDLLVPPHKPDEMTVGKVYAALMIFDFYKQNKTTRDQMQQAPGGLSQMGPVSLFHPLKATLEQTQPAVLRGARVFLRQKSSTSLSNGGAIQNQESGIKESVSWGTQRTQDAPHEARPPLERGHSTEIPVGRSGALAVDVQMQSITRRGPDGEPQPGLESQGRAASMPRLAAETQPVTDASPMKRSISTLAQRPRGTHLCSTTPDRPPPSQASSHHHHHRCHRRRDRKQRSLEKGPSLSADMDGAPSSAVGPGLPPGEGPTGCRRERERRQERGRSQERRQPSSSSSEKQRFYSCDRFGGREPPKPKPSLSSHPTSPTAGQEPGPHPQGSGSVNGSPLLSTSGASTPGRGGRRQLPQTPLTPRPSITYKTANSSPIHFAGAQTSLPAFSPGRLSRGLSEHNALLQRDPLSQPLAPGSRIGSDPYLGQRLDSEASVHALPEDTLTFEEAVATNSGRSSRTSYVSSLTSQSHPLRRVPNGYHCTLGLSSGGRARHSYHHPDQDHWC
T2 sequence (Q02410 whole entry): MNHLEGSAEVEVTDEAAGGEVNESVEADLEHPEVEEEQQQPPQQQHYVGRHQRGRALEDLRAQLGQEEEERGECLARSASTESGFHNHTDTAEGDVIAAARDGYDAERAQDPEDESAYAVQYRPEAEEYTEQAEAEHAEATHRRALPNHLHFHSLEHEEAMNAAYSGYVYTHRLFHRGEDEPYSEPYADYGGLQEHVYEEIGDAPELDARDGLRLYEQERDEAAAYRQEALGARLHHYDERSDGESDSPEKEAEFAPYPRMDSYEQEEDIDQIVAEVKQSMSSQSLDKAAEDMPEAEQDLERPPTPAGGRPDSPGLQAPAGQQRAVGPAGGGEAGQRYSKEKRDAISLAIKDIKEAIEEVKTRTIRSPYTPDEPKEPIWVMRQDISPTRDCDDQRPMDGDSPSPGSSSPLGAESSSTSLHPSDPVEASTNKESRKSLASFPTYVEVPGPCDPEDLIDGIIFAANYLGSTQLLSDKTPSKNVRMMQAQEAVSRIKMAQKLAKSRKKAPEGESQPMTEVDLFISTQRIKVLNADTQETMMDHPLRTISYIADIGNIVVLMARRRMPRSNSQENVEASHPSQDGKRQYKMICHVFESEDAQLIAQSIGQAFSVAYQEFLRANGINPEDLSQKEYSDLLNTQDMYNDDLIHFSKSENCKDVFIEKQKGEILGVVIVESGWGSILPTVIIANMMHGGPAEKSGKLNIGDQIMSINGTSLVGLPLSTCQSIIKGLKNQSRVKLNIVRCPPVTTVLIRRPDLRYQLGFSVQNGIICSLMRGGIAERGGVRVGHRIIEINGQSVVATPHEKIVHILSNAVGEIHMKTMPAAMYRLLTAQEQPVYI
Nucleotide-binding oligomerization domain-containing protein 1, sequence (Q9Y239 whole entry, the tested form may be a part): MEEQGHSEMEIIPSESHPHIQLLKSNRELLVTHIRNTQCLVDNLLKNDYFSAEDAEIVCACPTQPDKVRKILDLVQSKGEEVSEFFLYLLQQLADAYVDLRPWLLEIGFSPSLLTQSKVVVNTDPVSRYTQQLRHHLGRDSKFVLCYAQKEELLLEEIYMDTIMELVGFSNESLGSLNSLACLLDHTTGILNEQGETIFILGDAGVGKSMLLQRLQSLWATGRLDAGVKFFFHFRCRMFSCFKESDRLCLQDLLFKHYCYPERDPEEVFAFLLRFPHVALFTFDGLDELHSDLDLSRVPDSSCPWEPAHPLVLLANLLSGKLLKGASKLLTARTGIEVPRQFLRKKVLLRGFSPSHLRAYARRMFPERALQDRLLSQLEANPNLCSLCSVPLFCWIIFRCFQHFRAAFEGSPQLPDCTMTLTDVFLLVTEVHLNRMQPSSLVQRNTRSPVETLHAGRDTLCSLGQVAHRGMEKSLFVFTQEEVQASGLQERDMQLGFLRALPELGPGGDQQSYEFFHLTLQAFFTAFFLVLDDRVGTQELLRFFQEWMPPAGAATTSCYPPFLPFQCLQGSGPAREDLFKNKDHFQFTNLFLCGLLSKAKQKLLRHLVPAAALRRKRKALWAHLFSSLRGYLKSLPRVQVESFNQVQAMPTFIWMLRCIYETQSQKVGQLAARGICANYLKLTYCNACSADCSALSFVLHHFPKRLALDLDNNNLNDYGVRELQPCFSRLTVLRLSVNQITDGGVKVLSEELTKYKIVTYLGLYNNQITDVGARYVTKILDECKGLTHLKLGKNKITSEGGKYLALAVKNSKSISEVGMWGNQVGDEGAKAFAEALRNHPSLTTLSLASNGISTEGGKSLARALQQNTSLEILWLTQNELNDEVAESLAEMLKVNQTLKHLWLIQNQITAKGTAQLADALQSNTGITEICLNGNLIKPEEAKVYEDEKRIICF
Luciferin 4-monooxygenase, sequence (P08659 whole entry): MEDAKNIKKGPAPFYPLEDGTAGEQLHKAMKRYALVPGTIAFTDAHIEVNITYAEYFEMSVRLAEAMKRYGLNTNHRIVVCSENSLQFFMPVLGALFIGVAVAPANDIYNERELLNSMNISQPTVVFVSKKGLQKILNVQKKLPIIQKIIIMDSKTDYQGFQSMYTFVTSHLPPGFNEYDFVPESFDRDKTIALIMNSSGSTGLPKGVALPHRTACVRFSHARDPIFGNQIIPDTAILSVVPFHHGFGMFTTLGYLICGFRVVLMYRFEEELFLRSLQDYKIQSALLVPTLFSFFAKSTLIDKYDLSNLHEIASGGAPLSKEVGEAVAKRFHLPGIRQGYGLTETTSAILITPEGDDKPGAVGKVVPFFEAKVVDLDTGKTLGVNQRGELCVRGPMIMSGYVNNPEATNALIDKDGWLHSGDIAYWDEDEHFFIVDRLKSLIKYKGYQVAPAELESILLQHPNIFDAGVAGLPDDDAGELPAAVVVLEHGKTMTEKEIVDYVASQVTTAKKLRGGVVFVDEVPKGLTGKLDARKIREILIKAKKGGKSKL
Tumor necrosis factor, sequence (P01375 whole entry, the tested form may be a part): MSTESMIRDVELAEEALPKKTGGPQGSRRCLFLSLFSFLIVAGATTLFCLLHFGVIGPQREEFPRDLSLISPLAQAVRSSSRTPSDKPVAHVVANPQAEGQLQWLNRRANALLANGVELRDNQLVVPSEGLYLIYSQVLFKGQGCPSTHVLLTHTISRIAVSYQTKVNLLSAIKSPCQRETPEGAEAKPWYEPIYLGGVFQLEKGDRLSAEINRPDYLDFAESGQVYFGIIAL
Dual specificity protein phosphatase 3, sequence (P51452 whole entry): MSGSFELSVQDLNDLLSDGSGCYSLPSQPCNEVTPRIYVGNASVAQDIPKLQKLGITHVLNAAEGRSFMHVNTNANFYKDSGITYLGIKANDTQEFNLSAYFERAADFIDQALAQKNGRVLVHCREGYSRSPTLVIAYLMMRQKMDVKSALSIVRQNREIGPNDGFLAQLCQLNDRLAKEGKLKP

As a reminder, the EC50 is the concentration at which the effect is half-maximal. For `Cc1oc2cc3c(C(=O)OCCN(C)C)c(C)oc3cc2c1C(=O)OCCN(C)C`, the EC50 in the assay on HEK293 [1] was 0.11 µM (active); in [2], > 8 µM (not active); in the assay with HEK293 [3], 13.9 µM (inactive); with HEK293 [4], 0.781 µM (active).

The IC50 is the concentration at which inhibition is half-maximal. Consider `CCC(=O)Nc1nc2ccccc2n1Cc1ccc(Cl)cc1`, for which the IC50 with HEK293 [5] was > 20 µM (inactive); on Tumor necrosis factor it was > 20 µM (inactive); in [8], 15.8 µM (active); in the assay “cells”, 0.29 µM (active); in assay [9], 12.3 µM (active); on Interleukin-8 [12] it was > 25 µM (inactive). Further, the IC50 at Interleukin-8 [15] is > 25 µM (inactive). Moreover, the CC50 in assay [6] is > 40 µM (active); in assay [7], 11 µM (active); in assay [11], 33.9 µM (active); in assay [14] it was > 20 µM (active). Moreover, the concentration giving a half-maximal response (EC50) in [10] was 1.1 µM (active); in [13] it was 8.28 µM (active).

By Ki is commonly meant the dissociation constant of the complex between target and ligand, obtained from inhibition or displacement. Regarding `Cc1cc(Br)c(-c2ccc(/C=C3/NC(=S)NC3=O)o2)cc1C`, the Ki in assay [16] is 3.19 µM (active).

Take `COc1ccc(CNC(=O)COC(=O)c2cccc3ccccc23)cc1`: the figures for the IC50 in assay [17] and in assay [18] were > 56.8 µM (inactive) and 26.4 µM (active), respectively.

For `CCOc1ccc(CCOc2c(Cl)cnn(-c3ccccc3)c2=O)cc1OCC`, the IC50 in assay [19] was > 20 µM (inactive).

`CC(=O)C1=C(O)C(=O)N(Cc2ccccc2)C1c1ccco1` (centres undefined): the IC50 on Bcl-2-like protein 10 is > 100 µM (inactive).

With `C[C@@H](C(=O)O)c1ccc(N2Cc3ccccc3C2=O)cc1` [(R)-INDOPROFEN], the AC50 is 10 µM (inconclusive) on Cytochrome P450 2C19 and 7.94 µM (inconclusive) on Cytochrome P450 2D6.
